# From patent publication US9868766B2, “Peptides as oxytocin agonists” (Hoffmann-La Roche Inc., priority 2012, dated 2018)
# Positions of bridges follow the written chain, without caps; N, C: chain ends. Non-standard residues stand in square brackets, D forms with d. Residues, ends and D or L forms follow the SMILES beside them. Pro(trans-4-F) = O=C(O)[C@@H]1C[C@@H](F)CN1; Gly(octyl) = CCCCCCCC[C@H](N)C(=O)O; d(aIle) = CC[C@H](C)[C@@H](N)C(=O)O; Aoc(2) = CCCCCC[C@H](N)C(=O)O; αMeL = CC(C)C[C@](C)(N)C(=O)O; Chg = N[C@H](C(=O)O)C1CCCCC1; hLeu = CC(C)CC[C@H](N)C(=O)O; β3hP = O=C(O)C[C@@H]1CCCN1; Pip = O=C(O)[C@@H]1CCCCN1; Ac5c = NC1(C(=O)O)CCCC1; Aib = CC(C)(N)C(=O)O; Sar = CNCC(=O)O
# Target: T1, human Oxytocin (OTR) receptor (Homo sapiens, UniProt P30559)
# T1 construct: expressed in transfected cells
# T1 sequence (P30559 1-389): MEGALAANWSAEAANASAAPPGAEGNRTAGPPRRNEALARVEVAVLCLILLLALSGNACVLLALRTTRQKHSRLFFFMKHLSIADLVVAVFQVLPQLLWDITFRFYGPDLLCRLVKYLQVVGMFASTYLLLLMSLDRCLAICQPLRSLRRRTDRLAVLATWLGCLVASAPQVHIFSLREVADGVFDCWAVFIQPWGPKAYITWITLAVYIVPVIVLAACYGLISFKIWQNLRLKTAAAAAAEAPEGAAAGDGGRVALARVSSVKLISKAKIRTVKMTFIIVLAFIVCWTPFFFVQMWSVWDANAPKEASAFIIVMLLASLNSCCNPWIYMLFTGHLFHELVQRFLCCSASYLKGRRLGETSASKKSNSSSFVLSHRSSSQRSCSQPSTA
# Assay: Calcium flux assay (FLIPR), agonist mode, CHO cells expressing human OTR
# Assay type: cell-based
# Conditions: for EC50: CHO cells stably expressing human OTR, calcium flux, read-out: hOT EC50; for hOT efficacy (%) / Emax: maximum response normalized to endogenous full agonist = 100%; for Emax: CHO, read-out: hOT efficacy (%)
# From the text: Chines Hamster Ovary (CHO) cells were transfected with expression plasmids encoding either the human V1a, the human Oxytocin (OTR) or the humanV2 receptor, the later in combination with the chimeric Gqs5 G protein to redirect the signal to Calcium flux. Stable cells were cloned by limiting dilution to yield monoclonal cell lines expressing either human V1a, human V2+Gqs5 or human OTR receptors and selected based on functional responses detected on a fluorometric imaging plate reader (FLIPR) detecting Calcium flux in the cell after receptor activation.
# On the afternoon before the assay, cells were plated at a density of 50,000 cells/well into black 96 well plates with clear bottoms to allow cell inspection and fluorescence measurements from the bottom of each well. The density of cells was sufficient to yield a confluent monolayer the next day. Hanks balanced salt solution, without phenol red, containing 20 mM HEPES (pH 7.3) and 2.5 mM probenecid (assay buffer) was prepared fresh for each experiment. Compound dilutions were made using a Beckman Biomek 2000 laboratory automation workstation, in assay buffer containing 1% DMSO. The dye-loading buffer consisted of a final concentration of 2 μM Fluo-4-AM (dissolved in DMSO and pluronic acid) in assay buffer. […] Once dye-loaded, the cells were washed thoroughly on an Embla cell washer with the assay buffer to remove any unincorporated dye. Exactly 100 μl assay buffer was left in each well.
# Each 96 well plate containing dye-loaded cells was placed into the FLIPR machine and the laser intensity set to a suitable level to detect low basal fluorescence. To test compounds as agonists, 25 μl diluted compound was added to the plate 10 seconds into the fluorescent measurements and fluorescent response was recorded for 5 minutes. The fluorescence data was normalized to the endogenous full agonist dose-response set at 100% for the maximum response and 0% for the minimum. […] The concentration of agonist that produced a half-maximal response is represented by the EC50 value, the logarithm of which yielded the pEC50 value.
EC50,hOT efficacy (%),Emax,Structure (SMILES)
0.181 µM,108%,,CC[C@H](C)[C@@H]1NC(=O)[C@H](Cc2ccc(O)cc2)NC(=O)CNC(=O)CC[C@@H](C(=O)N2CCC[C@H]2C(=O)N[C@@H](CC(C)C)C(=O)N(C)CC(N)=O)NC(=O)[C@H](CC(N)=O)NC(=O)[C@H](CCC(N)=O)NC1=O [Example 5] (GYIQNEPL[Sar]-NH2; lactam N-6)
0.069 µM,117%,,CC[C@H](C)[C@@H]1NC(=O)[C@H](Cc2ccc(O)cc2)NC(=O)CNC(=O)CC[C@@H](C(=O)N(C)CC(=O)N[C@H](C(=O)NCC(N)=O)C2CCCCC2)NC(=O)[C@H](CC(N)=O)NC(=O)[C@H](CCC(N)=O)NC1=O [Example 41] (GYIQNE[Sar][Chg]G-NH2; lactam N-6)
0.0036 µM,,108%,CC[C@H](C)[C@@H]1NC(=O)[C@H](Cc2ccc(O)cc2)NC(=O)CNC(=O)CC[C@@H](C(=O)N(C)CC(=O)NC2(C(=O)NCC(N)=O)CCCC2)NC(=O)[C@H](CC(N)=O)NC(=O)[C@H](CCC(N)=O)NC1=O [Example 48] (GYIQNE[Sar][Ac5c]G-NH2; lactam N-6)
0.088 µM,64%,,CC[C@H](C)[C@@H]1NC(=O)[C@H](Cc2ccc(O)cc2)NC(=O)CNC(=O)CC[C@@H](C(=O)N2CCC[C@@H]2C(=O)N[C@@H](CC(C)C)C(=O)NCC(N)=O)NC(=O)[C@H](CC(N)=O)NC(=O)[C@H](CCC(N)=O)NC1=O [Example 23] (GYIQNE[dP]LG-NH2; lactam N-6)
0.004 µM,94%,,CC[C@H](C)[C@@H]1NC(=O)[C@H](Cc2ccc(O)cc2)NC(=O)[C@H](C)NC(=O)CC[C@@H](C(=O)N2CCC[C@H]2C(=O)N[C@@H](CC(C)C)C(=O)NCC(N)=O)NC(=O)[C@H](CC(N)=O)NC(=O)[C@H](CCC(N)=O)NC1=O [Example 3] (AYIQNEPLG-NH2; lactam N-6)
0.25 µM,92%,,CC[C@H](C)[C@@H]1NC(=O)[C@H](Cc2ccc(O)cc2)NC(=O)CNC(=O)CC[C@H](C(=O)N2CCC[C@H]2C(=O)N[C@@H](CC(C)C)C(=O)NCC(N)=O)NC(=O)[C@H](CC(N)=O)NC(=O)[C@H](CCC(N)=O)NC1=O [Example 14] (GYIQN[dE]PLG-NH2; lactam N-6)
0.1 µM,92%,,CC(C)C[C@@H]1NC(=O)[C@H](Cc2ccc(O)cc2)NC(=O)CNC(=O)CC[C@@H](C(=O)N2CCC[C@H]2C(=O)N[C@@H](CC(C)C)C(=O)NCC(N)=O)NC(=O)[C@H](CC(N)=O)NC(=O)[C@H](CCC(N)=O)NC1=O [Example 8] (GYLQNEPLG-NH2; lactam N-6)
0.001 µM,,126%,CC[C@H](C)[C@@H]1NC(=O)[C@H](Cc2ccc(O)cc2)NC(=O)CNC(=O)CC[C@@H](C(=O)N(C)CC(=O)N[C@@H](Cc2c[nH]c3ccccc23)C(=O)NCC(N)=O)NC(=O)[C@H](CC(N)=O)NC(=O)[C@H](CCC(N)=O)NC1=O [Example 38] (GYIQNE[Sar]WG-NH2; lactam N-6)
0.031 µM,102%,,CC[C@H](C)[C@@H]1NC(=O)[C@H](Cc2ccc(O)cc2)NC(=O)CNC(=O)CC[C@@H](C(=O)N2CCC[C@H]2CC(=O)N[C@@H](CC(C)C)C(=O)NCC(N)=O)NC(=O)[C@H](CC(N)=O)NC(=O)[C@H](CCC(N)=O)NC1=O [Example 4] (GYIQNE[β3hP]LG-NH2; lactam N-6)
0.0059 µM,,97%,CC[C@H](C)[C@@H]1NC(=O)[C@H](Cc2ccc(O)cc2)NC(=O)CNC(=O)CC[C@@H](C(=O)N(C)CC(=O)NC(C)(C)C(=O)NCC(N)=O)NC(=O)[C@H](CC(N)=O)NC(=O)[C@H](CCC(N)=O)NC1=O [Example 49] (GYIQNE[Sar][Aib]G-NH2; lactam N-6)
0.098 µM,116%,,CC[C@H](C)[C@H]1NC(=O)[C@H](Cc2ccc(O)cc2)NC(=O)CNC(=O)CC[C@@H](C(=O)N2CCC[C@H]2C(=O)N[C@@H](CC(C)C)C(=O)NCC(N)=O)NC(=O)[C@H](CC(N)=O)NC(=O)[C@H](CCC(N)=O)NC1=O [Example 22] (GY[d(aIle)]QNEPLG-NH2; lactam N-6)
0.0011 µM,,127%,CCCCCC[C@H](NC(=O)CN(C)C(=O)[C@@H]1CCC(=O)NCC(=O)N[C@@H](Cc2ccc(O)cc2)C(=O)N[C@@H]([C@@H](C)CC)C(=O)N[C@@H](CCC(N)=O)C(=O)N[C@@H](CC(N)=O)C(=O)N1)C(=O)NCC(N)=O [Example 53] (GYIQNE[Sar][Aoc(2)]G-NH2; lactam N-6)
0.0008 µM,,134%,CCCCCCCC[C@H](NC(=O)CN(C)C(=O)[C@@H]1CCC(=O)NCC(=O)N[C@@H](Cc2ccc(O)cc2)C(=O)N[C@@H]([C@@H](C)CC)C(=O)N[C@@H](CCC(N)=O)C(=O)N[C@@H](CC(N)=O)C(=O)N1)C(=O)NCC(N)=O [Example 54] (GYIQNE[Sar][Gly(octyl)]G-NH2; lactam N-6)
0.124 µM,87%,,CC[C@H](C)[C@@H]1NC(=O)[C@H](Cc2ccc(O)cc2)NC(=O)CNC(=O)CC[C@@H](C(=O)N2CCC[C@H]2C(=O)NCC(=O)NCC(N)=O)NC(=O)[C@H](CC(N)=O)NC(=O)[C@H](CCC(N)=O)NC1=O [Example 7] (GYIQNEPGG-NH2; lactam N-6)
0.004 µM,,137%,CC[C@H](C)[C@@H]1NC(=O)[C@H](Cc2ccc(O)cc2)NC(=O)CNC(=O)CC[C@@H](C(=O)N(C)CC(=O)N[C@@H](CC(C)C)C(=O)NCC(N)=O)NC(=O)[C@H](CC(N)=O)NC(=O)[C@H](C)NC1=O [Example 37] (GYIANE[Sar]LG-NH2; lactam N-6)
0.026 µM,124%,,CC[C@H](C)[C@@H]1NC(=O)[C@H](Cc2ccc(O)cc2)NC(=O)CNC(=O)CC[C@@H](C(=O)N(C)CC(=O)N[C@@H](CCC(C)C)C(=O)NCC(N)=O)NC(=O)[C@H](CC(N)=O)NC(=O)[C@H](CCC(N)=O)NC1=O [Example 43] (GYIQNE[Sar][hLeu]G-NH2; lactam N-6)
0.0043 µM,,121%,CC[C@H](C)[C@@H]1NC(=O)[C@H](Cc2ccc(O)cc2)NC(=O)CNC(=O)CC[C@@H](C(=O)N(C)CC(=O)N[C@@H](CC(C)C)C(=O)NCC(N)=O)NC(=O)[C@H](CC(N)=O)NC(=O)[C@H](CO)NC1=O [Example 52] (GYISNE[Sar]LG-NH2; lactam N-6)
0.0015 µM,,111%,CC[C@H](C)[C@@H]1NC(=O)[C@H](Cc2ccc(O)cc2)NC(=O)CNC(=O)CC[C@@H](C(=O)N2CCCC[C@H]2C(=O)N[C@@H](CC(C)C)C(=O)NCC(N)=O)NC(=O)[C@H](CC(N)=O)NC(=O)[C@H](CCC(N)=O)NC1=O [Example 47] (GYIQNE[Pip]LG-NH2; lactam N-6)
0.041 µM,138%,,CC[C@H](C)[C@@H]1NC(=O)[C@H](Cc2ccc(O)cc2)NC(=O)CNC(=O)CC[C@@H](C(=O)N2CCC[C@H]2C(=O)N[C@@](C)(CC(C)C)C(=O)NCC(N)=O)NC(=O)[C@H](CC(N)=O)NC(=O)[C@H](CCC(N)=O)NC1=O [Example 36] (GYIQNEP[αMeL]G-NH2; lactam N-6)
0.02 µM,104%,,CC[C@H](C)[C@@H]1NC(=O)[C@H](Cc2ccc(O)cc2)NC(=O)CNC(=O)CC[C@@H](C(=O)N(C)CC(=O)N[C@@H](CC(C)C)C(=O)NCC(N)=O)NC(=O)[C@H](CC(N)=O)NC(=O)[C@H](C(C)C)NC1=O [Example 55] (GYIVNE[Sar]LG-NH2; lactam N-6)
0.118 µM,93%,,CC[C@H](C)[C@@H]1NC(=O)[C@H](Cc2ccc(O)cc2)NC(=O)CNC(=O)CC[C@@H](C(=O)N2CCC[C@H]2C(=O)N[C@@H](CC(C)C)C(=O)NCC(N)=O)NC(=O)[C@H](CC(N)=O)NC(=O)[C@H](Cc2cnc[nH]2)NC1=O [Example 9] (GYIHNEPLG-NH2; lactam N-6)

Structure (SMILES),EC50,hOT efficacy (%),Emax
CC[C@H](C)[C@@H]1NC(=O)[C@H](Cc2ccc(O)cc2)NC(=O)CNC(=O)CC[C@@H](C(=O)N2C[C@H](F)C[C@H]2C(=O)N[C@@H](CC(C)C)C(=O)NCC(N)=O)NC(=O)[C@H](CC(N)=O)NC(=O)[C@H](CCC(N)=O)NC1=O [Example 46] (GYIQNE[Pro(trans-4-F)]LG-NH2; lactam N-6),0.01 µM,104%,
